The results in this text go back to PubChem BioAssay (NCI).

“And” between values parts separate entries of the source, which are not always exact repeats. Equal values may be shown once.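 48-hour exposure; five concentrations; linearly interpolated endpoints. The concentration for 50% growth inhibition is given as GI50. At the TGI there is no net growth.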

Some test systems named below: U251 CNS; HS 578T breast; NCI-H460 lung; SK-MEL-28 melanoma; MDA-MB-231 breast; CAKI-1 renal; DU-145 prostate; SW-620 colon; UACC-62 melanoma; MDA-N.
What all share (assay): growth of human tumour cells (NCI), 48 h

Turning to `COc1cc2cc(Oc3ccc(NC(=O)c4cc(C(F)(F)F)cc(C(F)(F)F)c4)cc3)c(C)nc2cc1OC`, the GI50 with U251 CNS was 2.64 µM; in the experiment with HS 578T breast it was 9.13 µM; in the experiment on NCI-H460 lung it was 2.16 µM; in the experiment with SK-MEL-28 melanoma, greater than 50 µM; in the experiment with MDA-MB-231 breast, 2.55 µM; in the experiment on CAKI-1 renal it was 1.5 µM. Moreover, the figures for the GI50 with DU-145 prostate and in the experiment on SW-620 colon were 4.78 µM and 4.35 µM, respectively. Besides, the TGI in the experiment with U251 CNS, with HS 578T breast, in the experiment with NCI-H460 lung, with SK-MEL-28 melanoma, in the experiment on MDA-MB-231 breast and in the experiment with CAKI-1 renal was greater than 50 µM throughout. Further, the TGI in the experiment on DU-145 prostate and with SW-620 colon was greater than 50 µM in each case.

Regarding `O=C(NCCCN(CCCCN(CCCNC(=O)C(F)(F)F)Cc1ccc2ccccc2c1)Cc1ccc2ccccc2c1)C(F)(F)F`, the TGI in the experiment with U251 CNS was greater than 100 µM; with NCI-H460 lung it was 23.7 µM; with SK-MEL-28 melanoma it was 5.88 µM; in the experiment on MDA-MB-231 breast, greater than 100 µM; with UACC-62 melanoma, 5.41 µM; in the experiment on DU-145 prostate, greater than 100 µM. The TGI in the experiment with SW-620 colon was greater than 100 µM.

On to `COc1ccc(/C=C2\C[C@H]3[C@@H]4CCC5=C/C(=N/O)CC[C@]5(C)[C@H]4CC[C@]3(C)\C2=N\O)cc1OC`, for which the TGI in the experiment on HS 578T breast, with NCI-H460 lung, with SK-MEL-28 melanoma, with CAKI-1 renal, in the experiment with UACC-62 melanoma and with DU-145 prostate was greater than 100 µM throughout. For the same molecule, the TGI in the experiment with SW-620 colon and in the experiment with MDA-N was greater than 100 µM throughout.

With `Nc1nc(N)c(N=O)c(Nc2ccc(Br)cc2)n1`, the TGI in the experiment on U251 CNS was 59 µM; in the experiment with NCI-H460 lung, greater than 100 µM; in the experiment on SK-MEL-28 melanoma it was 68.6 µM; with CAKI-1 renal, greater than 100 µM; with UACC-62 melanoma, 19.4 µM; in the experiment with SW-620 colon, greater than 100 µM.

As to `CC(=O)OCC1OC(n2cc(I)c(=O)[nH]c2=O)C(OC(C)=O)C(OC(C)=O)C1OC(C)=O` (stereo not drawn), the TGI in the experiment on U251 CNS, in the experiment with NCI-H460 lung, in the experiment on SK-MEL-28 melanoma, in the experiment with CAKI-1 renal, in the experiment with UACC-62 melanoma and in the experiment on SW-620 colon was greater than 100 µM in each case.

For the molecule `O=C(Nc1ccccc1F)c1cc2ccc(O)cc2oc1=Nc1ccccc1F`, the TGI in the experiment with U251 CNS turned out to be 3.63 µM; in the experiment on HS 578T breast, 5.03 µM; in the experiment with NCI-H460 lung, 6.18 µM; in the experiment on SK-MEL-28 melanoma, 5.8 µM; in the experiment with CAKI-1 renal, 4.46 µM; in the experiment on UACC-62 melanoma, 5.9 µM. In addition, the TGI came out at 3.75 µM with DU-145 prostate, 8.98 µM with SW-620 colon and 5.27 µM with MDA-N.

Take `CCN1CCCC(NCc2c3ccccc3c(CNC3CCCN(CC)C3)c3ccccc23)C1` (stereo not drawn): the TGI with U251 CNS stood at 45.3 µM; in the experiment on NCI-H460 lung, 18.3 µM; in the experiment with SK-MEL-28 melanoma it was 25.9 µM; in the experiment on CAKI-1 renal, 50 µM; in the experiment on UACC-62 melanoma it was 26.8 µM; in the experiment on SW-620 colon, 29.4 µM.

With `Cc1cn(-c2cc(C(=O)Nc3cccc(-n4ccc5c(NC(=O)c6ccccc6)nccc54)c3)cc(C(F)(F)F)c2)cn1`, the GI50 in the experiment with U251 CNS is 0.29 µM; in the experiment with HS 578T breast, 0.252 µM; in the experiment with NCI-H460 lung it was 0.29 µM; with SK-MEL-28 melanoma, 0.546 µM; in the experiment on MDA-MB-231 breast, 0.68 µM; in the experiment with CAKI-1 renal it was 0.52 µM. The values for the GI50 with UACC-62 melanoma, in the experiment with DU-145 prostate and in the experiment on SW-620 colon were 0.366 µM, 0.525 µM and 0.39 µM, respectively. The TGI stood at 1.48 µM in the experiment on U251 CNS; 1.73 µM in the experiment on HS 578T breast; 1.2 µM with NCI-H460 lung; 5.41 µM in the experiment on SK-MEL-28 melanoma; 3.62 µM in the experiment with MDA-MB-231 breast; 2.99 µM in the experiment with CAKI-1 renal. Further, the TGI in the experiment with UACC-62 melanoma was 12.7 µM; in the experiment with DU-145 prostate it was 2.2 µM; in the experiment with SW-620 colon it was 1.78 µM.

Regarding `CC12CCC3C(CCC4CC(OC(=O)Cc5ccc(N(CCCl)CCCl)cc5)CCC43C)C1CCC(=O)N2` (stereo not drawn), the TGI was 28.4 µM in the experiment with U251 CNS; 22.4 µM in the experiment with NCI-H460 lung; 30.9 µM in the experiment on SK-MEL-28 melanoma; 29.5 µM with CAKI-1 renal; 27.8 µM with SW-620 colon.

Consider `COc1c(O)c2c3c(c(C)cc(O)c3c1O)C(=O)C(O)(C(C)(C)C(C)=O)C2=O` (stereo not drawn), for which the TGI in the experiment on U251 CNS, in the experiment on NCI-H460 lung, with SK-MEL-28 melanoma, with CAKI-1 renal, with UACC-62 melanoma and in the experiment with SW-620 colon was greater than 100 µM each time. Also, the GI50 with UACC-62 melanoma was 39.9 µM and > 100 µM.

As to `CCOC(=O)C1(C(=O)OCC)COS(=O)OC1`, the TGI in the experiment with U251 CNS is greater than 100 µM; in the experiment with HS 578T breast, greater than 100 µM; in the experiment with NCI-H460 lung, greater than 100 µM; with SK-MEL-28 melanoma, 95.7 µM; with MDA-MB-231 breast it was 35.3 µM; in the experiment with DU-145 prostate it was greater than 100 µM. Further, the TGI is 36.1 µM with SW-620 colon and greater than 100 µM in the experiment with MDA-N.

With `O=C1NCC(NC(=O)C(F)(F)F)c2c(Br)sc(Br)c21` (stereo not drawn), the TGI in the experiment on U251 CNS, in the experiment with NCI-H460 lung, in the experiment on SK-MEL-28 melanoma, in the experiment with MDA-MB-231 breast, in the experiment on CAKI-1 renal and in the experiment on UACC-62 melanoma was greater than 100 µM each time. Besides, the TGI in the experiment with DU-145 prostate, in the experiment with SW-620 colon and in the experiment with MDA-N was greater than 100 µM in each case.

Regarding `CCC1=CC2CN3Cn4c(c(COCc5c6n(c7ccccc57)CN5CC7C=C(CC)C5C6(C(=O)OC)C7)c5ccccc54)C(C(=O)OC)(C2)C13`, the TGI with U251 CNS, with NCI-H460 lung, in the experiment with SK-MEL-28 melanoma, in the experiment on CAKI-1 renal, with UACC-62 melanoma and in the experiment with SW-620 colon was greater than 100 µM in each case.

`N=C(N)c1ccc(-c2ccc(-c3cccs3)s2)cc1`: the GI50 was 2.99 µM with HS 578T breast; 1.63 µM in the experiment on SK-MEL-28 melanoma; 1.64 µM in the experiment with MDA-MB-231 breast; 1.89 µM in the experiment with CAKI-1 renal; 1.68 µM in the experiment on UACC-62 melanoma; 1.68 µM in the experiment with DU-145 prostate. In addition, the TGI stood at 9.62 µM with HS 578T breast; 3.07 µM in the experiment with SK-MEL-28 melanoma; 3.28 µM in the experiment with MDA-MB-231 breast; 4.23 µM in the experiment with CAKI-1 renal; 3.18 µM with UACC-62 melanoma; 3.14 µM in the experiment on DU-145 prostate.

Turning to `CC1=NN(C(=O)CC(=O)Nc2ccccc2F)C(=O)C1N=Nc1ccccc1[N+](=O)[O-]` (stereo not drawn), the TGI in the experiment with U251 CNS is greater than 100 µM; in the experiment with SK-MEL-28 melanoma, greater than 100 µM; in the experiment on CAKI-1 renal it was greater than 100 µM; in the experiment with UACC-62 melanoma, 69 µM; in the experiment on SW-620 colon it was greater than 100 µM.
